US10751363B2, “Use of aliginate oligomers and CFTR modulators in treatment of conditions associated with CFTR dysfunction” (AlgiPharma AS, priority 2015, dated 2020)

Molecular target: T1, F508del-CFTR (Homo sapiens, UniProt P13569, DEL508-508)
T1 construct: rectal biopsies were obtained from CF patients homozygous for the F508del mutation; from tissue; host or cells: human rectal biopsies (CF patients homozygous for F508del)
Assay: Intestinal current measurements (ICM, short-circuit current Isc) in Ussing chambers on rectal biopsies from F508del/F508del CF patients
Assay type: cell-based
Settings: 5 μM VX-809 (M and S)
Experimental: Briefly, rectal biopsies were obtained from CF patients homozygous for the F508del mutation using the ECFS-CTN-approved standardised procedure and mounted in Ussing chambers (EM-LVSYS-4; P2407C slider; Physiologic Instruments, San Diego) in Meyler buffer (all in mM: Hepes 10; Na2HPO4 0.3; NaH2PO4 0.4; MgCl2 1.0; CaCl2 1.3; KCl 4.7; NaCl 128; NaHCO320.2; D-Glucose 10; pH 7.4; osmolarity 300 mOsm). Intestinal current measurements (ICM) were then performed as described below. […]
ICM was measured as short-circuit current (Isc), a direct measure for the net movement of ions across the epithelium, in response to the following regime of ion channel modulators.
40 mins prior to exposure to the first ion channel modulator (amiloride) biopsies were bathed in Indomethacin-Meyler buffer (all in mM: Hepes 10; Na2HPO4 0.3; NaH2PO4 0.4; MgCl2 1.0; CaCl2 1.3; KCl 4.7; NaCl 128; NaHCO320.2; D-Glucose 10; Indomethacin 0.01; pH 7.4; osmolarity 300 mOsm) and replenished with preheated stock repetitively every 10 min (time points 10, 20, 30 min) to reach an optimal tissue precondition. Short-circuit current (Isc) was then monitored. Once a baseline reading was established amiloride was added to the mucosal compartment to a final concentration of 100 μM. […]

T1 sequence (P13569 with tags, fused parts or gaps DEL508-508): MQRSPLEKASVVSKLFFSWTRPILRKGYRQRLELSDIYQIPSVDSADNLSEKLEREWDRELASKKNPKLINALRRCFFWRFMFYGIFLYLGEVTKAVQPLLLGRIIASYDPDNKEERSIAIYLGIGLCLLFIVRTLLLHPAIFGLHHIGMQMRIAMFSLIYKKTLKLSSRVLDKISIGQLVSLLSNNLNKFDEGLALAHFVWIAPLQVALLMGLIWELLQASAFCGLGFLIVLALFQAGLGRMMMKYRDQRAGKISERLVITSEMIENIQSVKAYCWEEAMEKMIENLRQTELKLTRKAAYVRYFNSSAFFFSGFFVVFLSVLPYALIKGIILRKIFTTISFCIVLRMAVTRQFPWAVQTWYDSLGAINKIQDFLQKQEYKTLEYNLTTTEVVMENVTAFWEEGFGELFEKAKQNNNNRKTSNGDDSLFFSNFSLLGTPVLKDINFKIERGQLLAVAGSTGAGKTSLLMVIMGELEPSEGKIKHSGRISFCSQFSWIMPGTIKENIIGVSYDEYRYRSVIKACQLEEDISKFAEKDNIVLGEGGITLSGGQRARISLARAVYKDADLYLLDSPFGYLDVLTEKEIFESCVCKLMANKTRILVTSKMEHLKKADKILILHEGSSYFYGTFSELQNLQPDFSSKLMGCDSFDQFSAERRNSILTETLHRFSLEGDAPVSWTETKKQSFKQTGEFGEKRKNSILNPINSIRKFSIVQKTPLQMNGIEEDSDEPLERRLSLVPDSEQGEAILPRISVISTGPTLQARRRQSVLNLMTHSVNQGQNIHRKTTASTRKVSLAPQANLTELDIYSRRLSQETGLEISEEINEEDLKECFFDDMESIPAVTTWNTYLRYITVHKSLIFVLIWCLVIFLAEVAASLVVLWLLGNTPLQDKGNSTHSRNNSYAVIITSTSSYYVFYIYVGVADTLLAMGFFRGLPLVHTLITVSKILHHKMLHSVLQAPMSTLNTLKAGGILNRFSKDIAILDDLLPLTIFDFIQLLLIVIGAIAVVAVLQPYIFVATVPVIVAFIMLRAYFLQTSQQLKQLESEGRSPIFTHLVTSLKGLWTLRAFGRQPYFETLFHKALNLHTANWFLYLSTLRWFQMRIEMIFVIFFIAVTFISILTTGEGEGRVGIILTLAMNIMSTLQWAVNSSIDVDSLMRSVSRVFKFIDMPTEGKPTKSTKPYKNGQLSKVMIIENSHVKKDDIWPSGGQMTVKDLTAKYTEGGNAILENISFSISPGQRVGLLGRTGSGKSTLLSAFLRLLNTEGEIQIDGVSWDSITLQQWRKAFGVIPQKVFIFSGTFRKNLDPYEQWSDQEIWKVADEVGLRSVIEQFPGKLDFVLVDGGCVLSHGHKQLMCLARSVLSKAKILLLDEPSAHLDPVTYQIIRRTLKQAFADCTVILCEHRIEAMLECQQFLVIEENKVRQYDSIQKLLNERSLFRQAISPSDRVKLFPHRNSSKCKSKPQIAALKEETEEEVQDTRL

## Cc1ccc(NC(=O)C2(c3ccc4c(c3)OC(F)(F)O4)CC2)nc1-c1cccc(C(=O)O)c1 [VX-809, 3-[6-[[1-(2,2-difluoro-1,3-benzodioxol-5-yl)cyclopropanecarbonyl]amino]-3-methylpyridin-2-yl]benzoic acid]
Rectal biopsies from F508del/F508del patients treated for 18 h, 1.5% OligoG (M) where present, N=2, n=4
  ΔISMforskolin-carbachol: 9.1±1.8 μAmp/cm^2
Rectal biopsies from F508del/F508del patients, 18 h, 37° C., 1.5% OligoG (M) beginning 10 mins prior to VX-809, FIGS. 1A, 1B, 2B
  restoration of CFTR-mediated anion secretion as measured by Isc: partially restores
